Source: patent US9505796B2, “Phosphorylated A2A receptor agonists” (Crozet Medical GMBH, priority 2006, dated 2016)

Key:
[1] = system: wire-injured carotid arteries of WT and CD73−/− mice; assay: Mouse model of carotid artery injury, neointima formation; type: in vivo; conditions: 4 weeks after injury, continuous infusion 0.004 μg/kg per minute
Source text: Male, 6-12 week old CD73^−/− or WT NMRI mice (n=6-8) were left untreated or fed an atherogenic diet containing 21% fat for one week before and up to 4 weeks after injury. Transluminal carotid artery injury was induced by 4 rotational passes of a 0.36-mm guide-wire. After 6 days of diet and one day before carotid injury, some mice (n=10 per group) were anesthetized and underwent implantation of a primed, 28-day osmotic pump (model 2004, Alza Corp) placed subcutaneously via transverse midscapular incision for continuous treatment with ATL (0.004 μg/kg per minute; 200 μL of 1% dimethyl sulfoxide in saline; kind gift from G. W. Sullivan and J. Linden, University of Virginia). Arteries were harvested by in situ perfusion fixation with 4% paraformaldehyde and embedded in paraffin. […]
Neointimal and medial areas were quantified in serial 5 μm sections of common carotid arteries within a standardized distance from the bifurcation (50-250 μm) stained with Movat pentachrome Areas within the external elastic lamina (EEL), internal elastic lamina (TEL) and lumen (L) were determined by computer-assisted planimetry (Diskus software, Hilgers). […] The relative content of macrophages in the neointima was determined in serial sections of the LCA within 300 μm from the bifurcation (6 per mouse, each 50 μm apart). […] Images were recorded using a Leica DMLB microscope and CCD camera. […]

[2] = system: arrest of Mono Mac 6 cells on aortic ECs; assay: Adhesion assay: monocyte arrest on ECs under laminar flow; type: cell-based, mouse; conditions: ATL-146e 10 μM for 6 hours
Description: (§1) Mouse aortal ECs were cultured as described. Six mL of type I rat tail collagen (4 mg/mL) combined with 0.1 M NaOH, 3.5 mL 3×DMEM and 5.25 mL of 1×DMEM supplemented with 30% FCS was aliquoted into a 24 well plate, allowed to gel at 37° C. for 1 hour and equilibrated overnight in complete EC medium: RPMI-1640 supplemented with 20% heat inactivated FCS, 2-mercaptoethanol (4 L/L), gentamicin (10 g/mL) and EC growth supplement (50 g/mL, BD Biosciences). Aortas from CD73^−/− or WT mice cut into circular rings were opened longitudinally and placed luminal side down onto the collagen gel. After 2 days, complete medium was added and changed every third day. After 10 days, aortic segments were removed and the collagen gel digested with 0.3% collagenase H. Then, ECs were grown in complete medium and used between passages 2-8. Some ECs were treated with ATL-146e (10 μM) for 6 hours. Mono Mac 6 cells were maintained as described.
Laminar flow assays were performed as described. ECs were perfused with Mono Mac 6 cells (0.5×10^6/mL) pre-treated with or without anti-VLA-4 (10 g/mL, Immunotech) at 1.5 dyn/cm^2. The numbers of firmly arrested and rolling cells were quantified after 4 min in multiple (>10) fields by analyzing images recorded by video microscopy, and expressed as cells/mm^2

[3] = system: VCAM-1 mRNA expression in aortic ECs; assay: VCAM-1 mRNA expression in cultured aortic ECs (PCR); type: cell-based, mouse; conditions: CD73−/− ECs, ATL-146e 10 μM for 6 hours
Description: as §1
RNA was prepared using the RNAqzeous-Micro isolation kit (Ambion) and RNeasy Mini kit (Qiagen) and reverse-transcribed into cDNA using Mo-MLV RT (Invitrogen).

[4] = system: surface protein expression of VCAM-1 in aortic ECs; assay: VCAM-1 surface protein expression in aortic ECs (flow cytometry); type: cell-based, mouse; conditions: ATL-146e 10 μM for 6 hours
Description: as §1, with “Mono Mac 6 cells were maintained as described.” left out
For immunofluorescence, confluent ECs on glass chamber slides were fixed in methanol, permeabilized with 0.5% triton and reacted with p65 (C-20, Santa Cruz) or isotype control and FITC-conjugated secondary Ab (Boehringer Mannheim). […] After incubation for 30 min at RT, primary Ab binding was detected using a FITCconjugated secondary Ab (Boehringer Mannheim) and analyzed in a FACSCalibur (BD Biosciences). Specific mean fluorescence intensity was determined by subtracting isotype control staining.

With CCNC(=O)[C@H]1O[C@@H](n2cnc3c(N)nc(C#CCC4CCC(C(=O)OC)CC4)nc32)[C@H](O)[C@@H]1O (stereo partly shown) [ATL-146e] the “neointimal hyperplasia in carotid arteries” value ([1]; CD73−/− mice, vs control CD73−/− mice) was “completely prevented neointimal hyperplasia”, the “neointima formation in carotid arteries” value ([1]; WT mice, vs control WT mice) was “significantly inhibited neointima formation” and the monocyte arrest ([2]; CD73−/− ECs) was “inhibition of the monocyte arrest”. For the same compound, the monocyte arrest ([2]; WT ECs) was “not affected”, the “VCAM-1 mRNA expression” value [3] was “reduced the elevated VCAM-1 mRNA expression” and the “surface protein expression of VCAM-1” value ([4]; CD73−/− ECs) was “reversed the increased surface protein expression of VCAM-1”. The “surface protein expression of VCAM-1” value ([4]; WT ECs) was “slightly diminished its expression”.
